# Entries after “also recorded” stand apart in the source; their conditions may differ.
# Assay: High fat diet induced obesity (DIO) mouse model
# Format: in vivo, C57CL/6J mice
# Parameters: NSAH (sum) [NASH score]: scale not given here
# Conditions: for Total Body Weight / Body Weight: in g (unit assumed)
# Description: C57CL/6J mice aged 4-6 weeks (Korea Research Institute of Bioscience & Biotechnology, Ohchang, Korea) were housed in Polycarbonate cages (five mice per cage) in a room with a 12 hr:12 hr light-dark cycle and an ambient temperature of 24° C. All the mice were fed a commercial chow diet for 1 week after arrival in the animal facility. Mice were then divided into normal and obesity groups and fed with normal diet (ND) and high fat diets (HFD) respectively. The HFD group was divided into multiple treatment groups: a high fat diet vehicle group (HFD), an orlistat (purchased as OTC drug Alli®) positive control treatment group (ORI, 40 mg/kg of animal weight, 2 times/day) and optionally a sibutramine positive control treatment group (10 mg/kg, 1 time/day). The HFD contained 340 g of fat/kg of HFD (310 g lard plus 30 g soybean oil; Harlan Laboratories, USA). The HFD was formulated to provide 60% of the total energy generated by the diet from fat by replacing carbohydrate energy with lard and soybean oil, whereas the normal diet (ND) group was fed a diet providing only 18% of the total diet energy from fat(Harlan Laboratories, USA).
# Body weight was measured once each week and feed intake was measured twice per week. At the end of the experimental period, following a 12 hr. fasting period, the animals were anesthetized with ether, and blood was drawn from the abdominal vein. Liver and kidney and adipose tissues (epididymal, retroperitoneal, perirenal adipose tissues) were removed from each animal, rinsed with physiological saline, and weighed. Serum concentrations of glucose, total cholesterol, triglycerides, and LDL-cholesterol were determined using automatic analyzer (INTEGRA 400, Roche, Germany). Statistical significance of test results was measured using the Student's t-test.
# [1] = mice fed a high fat diet, Mutamba fractions 250 mg/kg oral 2 times per day, mean
# [2] = orlistat 40 mg/Kg/day oral, 8 weeks
# [3] = orlistat 40 mg/kg oral, 7 weeks
# [4] = orlistat 40 mg/kg, 2 times/day, listed as orlistat
# [5] = score 0-3, orlistat 40 mg/kg oral
# [6] = week 1, DIO mice, oral twice daily, mg/kg/day: ORI 40, Combo (Composition 1A) 800, Magnolia 100, Yerba Mate 500, Morus 200
# [7] = week 1, DIO mice, combination (5:1) 1200 mg/kg twice a day by gavage, group mean
# [8] = week 1, mice fed a high fat diet, Mutamba fractions 250 mg/kg oral 2 times per day, mean
# [9] = week 2, DIO mice, oral twice daily, mg/kg/day: ORI 40, Combo (Composition 1A) 800, Magnolia 100, Yerba Mate 500, Morus 200
# [10] = week 2, DIO mice, combination (5:1) 1200 mg/kg twice a day by gavage, group mean
# [11] = week 2, mice fed a high fat diet, Mutamba fractions 250 mg/kg oral 2 times per day, mean
# [12] = week 3, DIO mice, oral twice daily, mg/kg/day: ORI 40, Combo (Composition 1A) 800, Magnolia 100, Yerba Mate 500, Morus 200
structure (smiles),measurement,setting,value
"CCCCCCCCCCC[C@@H](C[C@@H]1OC(=O)[C@H]1CCCCCC)OC(=O)[C@H](CC(C)C)NC=O [ORI, orlistat]",FER (Food efficiency ratio),"mice fed a high fat diet, FER = body weight gain (g/day)/food intake (g/day), Mutamba fractions 250 mg/kg oral 2 times per day, mean",0.034
same,Body Weight Gain,[1],0.093 g/day
same,Food Intake,[1],2.769 g/day
same,Absolute Organ Weight: Epididymal Fat,[2],2.03 g
same,Absolute Organ Weight: Liver,[2],1.19 g
same,Absolute Organ Weight: PeriRenal Fat,[2],0.29 g
same,Absolute Organ Weight: Retroperitoneal Fat,[2],0.5 g
same,Absolute Organ Weight: Total Fat (sum of three fat pads),[2],2.82 g
same,Food Efficiency Ratio (FER),[2],−0.001
same,Food Intake (average),[2],3.147 g/day
same,Relative Organ Weight: Epididymal Fat,[2],0.05
same,Relative Organ Weight: Liver,[2],0.03
same,Relative Organ Weight: PeriRenal Fat,[2],0.01
same,Relative Organ Weight: Retroperitoneal Fat,[2],0.01
same,Relative Organ Weight: Total Fat,[2],0.07
same,Weight Gain (average),[2],-0.004 g/day
same,Food Efficiency Ratio (FER),[3],0.000
same,Food Intake (average per day),[3],3.195 g/day
same,Weight Gain (average per day),[3],0.000 g/day
same,blood biochemistry parameters vs HFD group,"orlistat 40 mg/kg, 2 times/day","statistically significant decrease in LDL-cholesterol; also recorded: statistically significant decreases in total cholesterol, LDL-cholesterol, and fasting glucose; also recorded: statistically significant decreases in ALT and LDL-cholesterol; also recorded: statistically significant decrease in ALT"
same,body weight gain vs HFD group,"orlistat 40 mg/kg, 2 times/day",greatest change in weight gain between week 2 and week 3; also recorded: statistically significant decreases in body weight gains each week after the first week of treatment; also recorded: statistically significant decreases in body weight gain across all weeks of the study; also recorded: statistically significant decreases in body weight gain from week 1 through to week 7; also recorded: statistically significant decreases in weight gain from week 1 through to week 8
same,body weight gain vs HFD group,[4],significant reduction in body weight gain at 7 weeks
same,"weight gain per day, food intake per day, food efficiency ratio (FER) vs HFD group",[4],significantly reduced FER
same,Liver pathology: Hepatocellular ballooning (0-2),"score 0-2, orlistat 40 mg/kg oral",0.67
same,Liver pathology: Lobular Inflammation (0-3),[5],1.33
same,Liver pathology: Steatosis (0-3),[5],0.67
same,NSAH (sum) [NASH score],"sum of scores, orlistat 40 mg/kg oral",2.67
same,Total Body Weight,"week 0, DIO mice, oral twice daily, mg/kg/day: ORI 40, Combo (Composition 1A) 800, Magnolia 100, Yerba Mate 500, Morus 200",40.22
same,Total Body Weight,"week 0, DIO mice, combination (5:1) 1200 mg/kg twice a day by gavage, group mean",38.40
same,Total Body Weight,"week 0, ORI 40 mg/kg, DIO mice (Table 52)",39.96
same,Total Body Weight,"week 0, ORI 40 mg/kg, DIO mice",42.76
same,Body Weight,"week 0, mice fed a high fat diet, Mutamba fractions 250 mg/kg oral 2 times per day, mean",39.76
same,Weight Gain,[6],−2.24
same,Total Body Weight,[6],37.98
same,Body Weight Gain,"week 1, DIO mice, SIB 10 mg/kg, ORI 40 mg/kg, Mutamba extract 32 (G1) 1000 mg/kg/day oral, mean",−2.59
same,Body Weight Gain,"week 1, DIO mice, SIB 10 mg/kg, ORI 40 mg/kg, Mutamba extract 33-2 G1 1000 mg/kg, mean",−3.05
same,Weight Gain,"week 1, DIO mice, combination (1:1) 2000 mg/kg twice a day, group mean",−3.20
same,Weight Gain,[7],−3.20
same,Total Body Weight,[7],35.20
same,Total Body Weight,"week 1, ORI 40 mg/kg, DIO mice (Table 52)",37.37
same,Total Body Weight,"week 1, ORI 40 mg/kg, DIO mice",38.73
same,Body Weight Gain,"week 1, ORI 40 mg/kg, mice fed high fat diet",−4.00
same,Body Weight Gain,[8],−3.05
same,Body Weight,[8],36.71
same,Weight Gain,"week 1, orlistat 40 mg/kg oral",−5.43
same,Weight Gain,[9],−6.14
same,Total Body Weight,[9],34.08
same,Body Weight Gain,"week 2, DIO mice, SIB 10 mg/kg, ORI 40 mg/kg, Mutamba extract 32 (G1) 1000 mg/kg/day oral, mean",−2.90
same,Body Weight Gain,"week 2, DIO mice, SIB 10 mg/kg, ORI 40 mg/kg, Mutamba extract 33-2 G1 1000 mg/kg, mean",−2.81
same,Weight Gain,"week 2, DIO mice, combination (1:1) 2000 mg/kg twice a day, group mean",−4.88
same,Weight Gain,[10],−4.88
same,Total Body Weight,[10],33.58
same,Total Body Weight,"week 2, ORI 40 mg/kg, DIO mice (Table 52)",37.05
same,Total Body Weight,"week 2, ORI 40 mg/kg, DIO mice",35.09
same,Body Weight Gain,"week 2, ORI 40 mg/kg, mice fed high fat diet",−7.38
same,Body Weight Gain,[11],−2.81
same,Body Weight,[11],36.95
same,Weight Gain,"week 2, orlistat 40 mg/kg oral",−6.69
same,Weight Gain,[12],−4.91
same,Total Body Weight,[12],35.32
same,Body Weight Gain,"week 3, DIO mice, SIB 10 mg/kg, ORI 40 mg/kg, Mutamba extract 32 (G1) 1000 mg/kg/day oral, mean",−2.55
same,Body Weight Gain,"week 3, DIO mice, SIB 10 mg/kg, ORI 40 mg/kg, Mutamba extract 33-2 G1 1000 mg/kg, mean",−2.63
same,Weight Gain,"week 3, DIO mice, combination (1:1) 2000 mg/kg twice a day, group mean",−3.34
same,Weight Gain,"week 3, DIO mice, combination (5:1) 1200 mg/kg twice a day by gavage, group mean",−3.34
